# Strand notation (5' to 3'): a small letter for the sugar, then the base; units joined by * are phosphorothioate-linked, units joined directly phosphodiester-linked; [ ] holds rarer units or linkages, { } end groups; capitals alone tell only the bases. l = locked nucleic acid (LNA); [5mC] = 5-methylcytosine; d = 2'-deoxy (DNA)
# How the values were obtained:
# A549 lung cancer cells = test: Measurement of proliferating viable cells (MTS assay), A549; assay type: cell-based, human; details: 4 nM and 16 nM, time course post-transfection (FIG. 13)
# Procedure: (§1) LNCaP prostate cancer and A549 lung cancer cells were seeded to a density of 150,000 cells per well in a 6-well plate the day prior to transfection. A549 cells were cultured in DMEM (Sigma)+10% fetal bovine serum (FBS)+2 mM Glutamax I+gentamicin (25 μg/ml) whereas LNCaP cells were cultured in RPMI 1640 Medium (Sigma)+10% fetal bovine serum (FBS)+2 mM Glutamax I+gentamicin (25 μg/ml). On the following day, medium was removed followed by addition of 1.2 ml OptiMEM containing 5 μg/ml Lipofectamine2000 (Invitrogen). Cells were incubated for 7 min before adding 0.3 ml oligonucleotides diluted in OptiMEM. The final oligonucleotide concentrations were 4 nM and 16 nM. After 4 hours of treatment, media was removed and cells were trypsinized and seeded to a density of 5000 cells per well in a clear 96 well plate (Scientific Orange no. 1472030100) in 100 μl media. Viable cells were measured at the times indicated by adding 10 μl the tetrazolium compound [3-(4,5-[…])-5-(3-carboxymethoxyphenyl)-2-(4-sulfophenyl)-2H-tetrazolium, inner salt; MTS] and an electron coupling reagent (phenazine ethosulfate; PES) (CellTiter 96® AQueous One Solution Cell Proliferation Assay, Promega). Viable cells were measured at 490 nm in a Powerwave (Biotek Instruments). The OD490 nm measurements were plotted against time/h. (See FIG. 13 and FIG. 14).
# [1] = test system: human androgen receptor mRNA; test: AR mRNA knock-down in A549, 24 h post-transfection, 0.5-16 nM (qPCR); assay type: cell-based; details: 0.5, 1, 2, 4, 8 and 16 nM, 24 h post-transfection (FIG. 12)
# Procedure: FIG. 12: AR mRNA in A549, 24 h post-transfection
# (§2) Oligonucleotides were evaluated for their potential to knock down androgen receptor mRNA expression at concentrations of 0.5, 1, 2, 4, 8 and 16 nM (see FIG. 11). LNCaP prostate cancer cells and A549 lung cancer cells were seeded to a density of 150,000 cells per well in a 6-well plate the day prior to transfection. A549 cells were cultured in DMEM (Sigma)+10% fetal bovine serum (FBS)+2 mM Glutamax I+gentamicin (25 μg/ml). LNCaP cells were cultured in RPMI 1640 Medium (Sigma)+10% fetal bovine serum (FBS)+2 mM Glutamax I+gentamicin ([…]). On the following day, medium was removed followed by addition of 1.2 ml OptiMEM containing 5 μg/ml Lipofectamine2000 (Invitrogen). Cells were incubated for 7 min before adding 0.3 ml oligonucleotides diluted in OptiMEM. The final oligonucleotide concentrations were 0.5, 1, 2, 4, 8 and 16 nM. Cells were washed and serum-containing media was added. After oligomer treatment cells were allowed to recover for 20 hours before they were harvested for RNA analysis. The procedure for RNA isolation, cDNA synthesis and qPCR were as described in Examples 5, 6 and 7.
# [2] = test system: Caspase 3/7 activity in LNCaP cells; test: Caspase 3/7 activity (Caspase-Glo 3/7) in LNCaP cells; assay type: cell-based, human; details: 4 nM and 16 nM; 14 h, 48 h and 72 h (FIG. 15)
# Procedure: (§3) LNCaP prostate cancer cells and A549 lung cancer cells were seeded to a density of 150,000 cells per well in a 6-well plate the day prior to transfection. A549 cells were cultured in DMEM (Sigma)+10% fetal bovine serum (FBS)+2 mM Glutamax I+gentamicin (25 μg/ml) whereas LNCaP cells were cultured in RPMI 1640 Medium (Sigma)+10% fetal bovine serum CUBS)+2 mM Glutamax I+gentamicin (25 μg/ml). The next day medium was removed followed by addition of 1.2 ml OptiMEM containing 5 μg/ml Lipofectamine2000 (Invitrogen). Cells were incubated for 7 min before adding 0.3 ml oligonucleotides diluted in OptiMEM. The final oligonucleotide concentrations were 4 nM and 16 nM. After 4 hours of treatment, media was removed and cells were trypsinized and seeded to a density of 5000 cells per well in a white 96 well plate (Nunc) in 100 μl media. Caspase 3/7 activity was measured at the times indicated by adding 100 μl Caspase-Glo 3/7 assay (Promega). Caspase 3/7 activity was measured using a luminometer. The caspase 3/7 activities were measured at three different time points 14 h, 48 h and 72 h (See FIG. 15 and FIG. 16).
# [3] = test system: mouse androgen receptor mRNA; test: In vivo knock-down of AR mRNA expression in mouse liver (QPCR); details: nude mice, 100 mg/kg i.v. q3dx4, liver 24 h after last dosing, normalised to mouse GAPDH, relative to saline treated animals
# Procedure: Nude mice were dosed i.v. q3dx4 with 100 mg/kg oligonucleotide (group size of 5 mice). The antisense oligonucleotides (SEQ ID:48, SEQ ID:51, SEQ ID:58, SEQ ID:63, SEQ ID:77) were dissolved in phosphate buffered saline. Animals were sacrificed 24 h after last dosing and liver tissue was sampled and stored in RNA later until RNA extraction and QPCR analysis. Total RNA was extracted and AR mRNA expression in liver samples was measured by QPCR as described in Example 7 using a mouse AR QPCR assay (cat. Mm01238475_m1, Applied Biosystems). Results were normalised to mouse GAPDH (cat. no. 4352339E, Applied Biosystems) and knock-own was quantitated relative to saline treated controls. The data in Table 4 are presented as percentage down-regulation relative to saline treated animals.
# [4] = test system: Caspase 3/7 activity in A549 cells; test: Caspase 3/7 activity (Caspase-Glo 3/7) in A549 cells; assay type: cell-based, human; details: 4 nM and 16 nM; 14 h, 48 h and 72 h (FIG. 16)
# Procedure: as §3
# [5] = test system: LNCaP prostate cancer cells; test: Measurement of proliferating viable cells (MTS assay), LNCaP; assay type: cell-based, human; details: 4 nM and 16 nM, time course post-transfection (FIG. 14)
# Procedure: as §1
# [6] = test system: human androgen receptor mRNA; test: AR mRNA knock-down in LNCaP, 24 h post-transfection, 0.5-16 nM (qPCR); assay type: cell-based; details: 0.5, 1, 2, 4, 8 and 16 nM, 24 h post-transfection (FIG. 11)
# Procedure: FIG. 11: AR mRNA in LNCaP, 24 h post-transfection
# as §2
Substance,"Growth of A549 lung cancer cells (viable cells, OD490 nm vs time) (A549 lung cancer cells)",Knock down of AR mRNA expression in lung cancer cell line A549 [1],Caspase 3/7 activity in LNCaP cells [2],"Liver (% KD) of AR mRNA expression ([3]; listed as SEQ ID: 58, 100 mg/kg)",Caspase 3/7 activity in A549 cells [4],"Growth of LNCaP prostate cancer cells (viable cells, OD490 nm vs time) [5]",Knock down of AR mRNA expression in LNCaP prostate cancer cell line [6],"Liver (% KD) of AR mRNA expression ([3]; listed as SEQ ID: 77, 100 mg/kg)"
"5′-AsCsCsasasgstststscststscsAsGsC-3′ (antisense lA*l[5mC]*l[5mC]*dA*dA*dG*dT*dT*dT*dC*dT*dT*dC*lA*lG*l[5mC]) [SEQ ID NO: 58, LNA gapmer antisense oligonucleotide]",inhibit growth,potent in knocking down AR mRNA expression,induce caspase 3/7 activity,95.2 +/− 1.0%,induce caspase 3/7 activity,inhibit growth,potent in knocking down AR mRNA expression,
"5′-CsCsCsasasgsgscsascstsgscsAsGsA-3′ (antisense l[5mC]*l[5mC]*l[5mC]*dA*dA*dG*dG*dC*dA*dC*dT*dG*dC*lA*lG*lA) [SEQ ID NO: 77, LNA gapmer antisense oligonucleotide]",inhibit growth,potent in knocking down AR mRNA expression,induce caspase 3/7 activity,,induce caspase 3/7 activity,inhibit growth,potent in knocking down AR mRNA expression,91.9 +/− 3.9%

# Source: US7737125B2, “LNA antagonists targeting the androgen receptor” (Enzon Pharamaceuticals, Inc., priority 2007, dated 2010)
